Measured values as given in patent US20220175720A1, “COMBINED P[…] ANTHOCYANIN COMPOSITION AND AN ANTIVIRAL AGENT” (priority 2019, published 2022).

Key:
HSV-1 = HSV-1 complete replication cycle assay, supernatants used to infect fresh BHK cells; type: cell-based, herpes simplex virus 1
Method: To not only analyze the virus entry and early phase of virus replication of infection but also later phases of viral replication, the test assay was adjusted accordingly. BHK cells were incubated with test compounds and subsequently infected with HSV-1. Two days after infection supernatants were collected, centrifuged to remove detached cells and used to infect BHK cells. After two additional days infected cells were quantified using the Ensight system.
Two days after infection supernatants were collected, centrifuged to remove detached cells and used to infect BHK cells. After two additional days infected cells were quantified using the PerkinElmer Ensight system. The mean of infected cells from six independent wells was calculated. Error bars show the standard deviation.
(§1) However, Aciclovir, the standard therapy for HSV-1, targets viral DNA replication before the late phase of virus replication cycle. […] Two days after infection supernatants were collected, centrifuged to remove detached cells and used to infect BHK cells. After two addition days infected cells were quantified.
as §1

[1] = tested on: GFP-encoding wildtype HSV-1 virus; assay: HSV-1 infection assay, GFP-expressing infected cells counted directly; type: cell-based, herpes simplex virus 1; conditions: single anthocyanins, BHK cells
Method: BHK cells were incubated with decreasing concentration of the solubilized test compounds for approx. 1 h. All concentrations were analyzed by six independent replicates on a black 96 well plate (PerkinElmer). Cells were infected with GFP-encoding wildtype HSV-1 virus and incubated for two days. Two days after infection, HSV-1-infected cells and GFP expressing cells were directly counted using the PerkinElmer Ensight system with optical cell culture plates. The instrument was controlled by manual counting.
The cells were subsequently infected with GFP-encoding HSV at a multiplicity of infection of 2.5, and infected GFP-expressing cells were counted one day after infection using the PerkinElmer Ensight system. […] Thus, the sugar is not required as potential co-factor for drug uptake.

Compound | reduction of infected cells (HSV-1; 0.5 μg/ml Aciclovir alone) | reduction of viral infectivity (HSV-1; 2 μg/ml Aciclovir alone) | inhibition of HSV-1 (viral infectivity) [1]
Nc1nc2c(ncn2COCCO)c(=O)[nH]1 [Aciclovir, 9-(2-hydroxyethoxymethyl)guanine] | two | two | 
OC[C@H]1O[C@@H](Oc2cc3c(O)cc(O)cc3[o+]c2-c2ccc(O)c(O)c2)[C@H](O)[C@@H](O)[C@@H]1O [C3G, Cyanidin 3-glucoside] |  |  | Neither C3G nor D3Gal or Pet3G inhibited HSV-1
OC[C@H]1O[C@@H](Oc2cc3c(O)cc(O)cc3[o+]c2-c2cc(O)c(O)c(O)c2)[C@H](O)[C@@H](O)[C@H]1O [D3Gal, Delphinidin 3-galactoside] |  |  | Neither C3G nor D3Gal or Pet3G inhibited HSV-1
COc1cc(-c2[o+]c3cc(O)cc(O)c3cc2O[C@@H]2O[C@H](CO)[C@@H](O)[C@H](O)[C@H]2O)cc(O)c1O [Pet3G, Petunidin 3-glucoside] |  |  | Neither C3G nor D3Gal or Pet3G inhibited HSV-1
